Experimental data from paper PMC6222718, “Ethylenediamine Derived Carboxamides of Betulinic and Ursolic Acid as Potential Cytotoxic Agents” (Molecules : A Journal of Synthetic Chemistry and Natural …, 2018).

How the values were obtained:
[1] = test system: 518A2 (melanoma); test: SRB cytotoxicity assay, 518A2; type: cell-based, human; details: for EC50: Homo sapiens, SRB assay, 96 h of treatment, 518A2; for Selectivity index (SI) 518A2: SI = EC50 (NIH 3T3)/EC50 (518A2)
Procedure: (§1) The cytotoxicity of ursolic and betulinic carboxamides 3–30 was determined in sulforhodamine B (SRB) assays.
(§2) The cell lines used were human cancer cell lines: 518A2 (melanoma), A2780 (ovarian carcinoma), HT29 (colon adenocarcinoma), MCF-7 (breast adenocarcinoma), 8505C (thyroid carcinoma) and non-malignant mouse fibroblasts NIH 3T3. Cultures were maintained as monolayers in RPMI 1640 medium with L-glutamine (Capricorn Scientific GmbH, Ebsdorfergrund, Germany) supplemented with 10% heat inactivated fetal bovineserum (Sigma-Aldrich Chemie GmbH, Steinheim, Germany) and penicillin/streptomycin (Capricorn Scientific GmbH, Ebsdorfergrund, Germany) at 37 °C in a humidified atmosphere with 5% CO2.
(§3) The cytotoxicity of the compounds was evaluated using the sulforhodamine-B (Kiton-Red S, ABCR) micro culture colorimetric assay. Cells were seeded into 96-well plates on day 0 at appropriate cell densities to prevent confluence of the cells during the period of experiment. After 24 h, the cells were treated with 6 different concentrations (1, 3, 7, 12, 20 and 30 µM) minimum. The final concentration of DMSO/DMF never exceeded 0.5%, which was non-toxic to the cells. After a 96 h treatment, the supernatant medium from the 96-well plates was discarded, the cells were fixed with 10% trichloroacetic acid (TCA) and allowed to rest at 4 °C. After 24 h fixation, the cells were washed in a strip washer and dyed with SRB solution (100 µL, 0.4% in 1% acetic acid) for about 20 min. After dying, the plates were washed four times with 1% acetic acid to remove the excess of the dye and allowed to air-dry overnight. Tris base solution (200 µL, 10 mM) was added to each well and absorbance was measured at λ = 570 nm using a 96-well plate reader (Tecan Spectra, Crailsheim, Germany). The EC50 values were averaged from three independent experiments performed each in triplicate calculated from semi logarithmic dose response curves applying a non-linear 4P Hills-slope equation (GraphPad Prism5; variables top and bottom were set to 100 and 0, respectively).

[2] = test system: MCF-7 (breast adenocarcinoma); test: SRB cytotoxicity assay, MCF-7; type: cell-based, human; details: for EC50: Homo sapiens, MCF7, SRB assay, 96 h of treatment, MCF-7; for Selectivity index (SI) MCF-7: SI = EC50 (NIH 3T3)/EC50 (MCF-7)
Procedure: as §1, §2, §3

[3] = test system: non-malignant mouse fibroblasts NIH 3T3; test: SRB cytotoxicity assay, NIH 3T3; type: cell-based; details: NIH3T3, 96 h of treatment
Procedure: as §1, §2, §3

[4] = test system: HT29 (colon adenocarcinoma); test: SRB cytotoxicity assay, HT29; type: cell-based, human; details: for EC50: Homo sapiens, HT-29, SRB assay, 96 h of treatment, HT29; for Selectivity index (SI) HT29: SI = EC50 (NIH 3T3)/EC50 (HT29)
Procedure: as §1, §2, §3

[5] = test system: 8505C (thyroid carcinoma); test: SRB cytotoxicity assay, 8505C; type: cell-based, human; details: for EC50: Homo sapiens, SRB assay, 96 h of treatment, 8505C; for Selectivity index (SI) 8505C: SI = EC50 (NIH 3T3)/EC50 (8505C)
Procedure: as §1, §2, §3

[6] = test system: A2780 (ovarian carcinoma); test: SRB cytotoxicity assay, A2780; type: cell-based, human; details: for EC50: Homo sapiens, SRB assay, 96 h of treatment, A2780; for Selectivity index (SI) A2780: SI = EC50 (NIH 3T3)/EC50 (A2780)
Procedure: as §1, §2, §3

SMILES | melting point | EC50 [1] | Selectivity index (SI) 518A2 [1] | EC50 [2] | Selectivity index (SI) MCF-7 [2] | EC50 [3] | EC50 [4] | Selectivity index (SI) HT29 [4] | EC50 [5] | Selectivity index (SI) 8505C [5] | EC50 [6] | Selectivity index (SI) A2780 [6]
C[C@@H]1CC[C@]2(C(=O)NCCN3CCCCC3)CC[C@]3(C)C(=CCC4[C@@]5(C)CC[C@H](O)C(C)(C)C5CC[C@]43C)C2[C@H]1C (stereo partly drawn) [Compound 13, (3β)-N-(2-Piperidin-1-ylethyl)-3-hydroxy-urs-12-en-28-amide] | 120 to 124 °C | 12600 ± 200 nM | 0.28 | 11100 ± 1400 nM | 0.32 | 3500 ± 600 nM | 8400 ± 700 nM | 0.42 | 11100 ± 300 nM | 0.32 | 7600 ± 600 nM | 0.46
C=C(C)C1CC[C@]2(C(=O)NCCN(C)C)CC[C@]3(C)C(CCC4[C@@]5(C)CC[C@H](OC(C)=O)C(C)(C)C5CC[C@]43C)C12 (stereo partly drawn) [Compound 18, (3β)-N-[2-(Dimethylamino)ethyl]-3-acetyloxy-lup-20(29)-en-28-amide] | 108 to 110 °C | 1300 ± 100 nM | 0.77 | 1000 ± 300 nM | 1.00 | 1000 ± 400 nM | 300 ± 20 nM | 3.33 | 1400 ± 150 nM | 0.71 | 1100 ± 50 nM | 0.91
C=C(C)C1CC[C@]2(C(=O)NCCN3CCCC3)CC[C@]3(C)C(CCC4[C@@]5(C)CC[C@H](OC(C)=O)C(C)(C)C5CC[C@]43C)C12 (stereo partly drawn) [Compound 19, (3β)-N-(2-Pyrrolidin-1-ylethyl)-3-acetyloxy-lup-20(29)-en-28-amide] | 143 to 145 °C | 1500 ± 100 nM | 0.80 | 1200 ± 200 nM | 1.00 | 1200 ± 70 nM | 500 ± 80 nM | 2.40 | 1600 ± 90 nM | 0.75 | 1400 ± 90 nM | 0.86
C=C(C)C1CC[C@]2(C(=O)NCCN3CCCCC3)CC[C@]3(C)C(CCC4[C@@]5(C)CC[C@H](OC(C)=O)C(C)(C)C5CC[C@]43C)C12 (stereo partly drawn) [Compound 20, (3β)-N-(2-Piperidin-1-ylethyl)-3-acetyloxy-lup-20(29)-en-28-amide] | 124 to 127 °C | 3100 ± 300 nM | 0.39 | 1500 ± 500 nM | 0.80 | 1200 ± 200 nM | 800 ± 100 nM | 1.50 | 3000 ± 360 nM | 0.40 | 1600 ± 200 nM | 0.75
C=C(C)C1CC[C@]2(C(=O)NCCN3CCNCC3)CC[C@]3(C)C(CCC4[C@@]5(C)CC[C@H](OC(C)=O)C(C)(C)C5CC[C@]43C)C12 (stereo partly drawn) [Compound 21, (3β)-N-(2-Piperazin-1-ylethyl)-3-acetyloxy-lup-20(29)-en-28-amide] | 107 to 110 °C | 2500 ± 700 nM | 0.40 | 1900 ± 100 nM | 0.53 | 1000 ± 50 nM | 600 ± 300 nM | 1.67 | 1100 ± 90 nM | 0.91 | 1500 ± 60 nM | 0.67
C=C(C)C1CC[C@]2(C(=O)NCCCCN)CC[C@]3(C)C(CCC4[C@@]5(C)CC[C@H](OC(C)=O)C(C)(C)C5CC[C@]43C)C12 (stereo partly drawn) [Compound 22, (3β)-N-(4-Aminobutyl)-3-acetyloxy-lup-20(29)-en-28-amide] | 133 to 135 °C | 1000 ± 30 nM | 0.60 | 800 ± 40 nM | 0.75 | 600 ± 40 nM | 600 ± 50 nM | 1.00 | 1400 ± 50 nM | 0.43 | 1100 ± 30 nM | 0.55
C=C(C)C1CC[C@]2(C(=O)NCCOCCN)CC[C@]3(C)C(CCC4[C@@]5(C)CC[C@H](OC(C)=O)C(C)(C)C5CC[C@]43C)C12 (stereo partly drawn) [Compound 23, (3β)-N-[2-(2-Aminoethoxy)ethyl]-3-acetyloxy-lup-20(29)-en-28-amide] | 109 to 112 °C | 1900 ± 10 nM | 0.53 | 1400 ± 200 nM | 0.71 | 1000 ± 100 nM | 400 ± 100 nM | 2.50 | 2200 ± 810 nM | 0.45 | 1500 ± 100 nM | 0.67

Continued, in another order:

melting point | SMILES | EC50 [1] | Selectivity index (SI) 518A2 [1] | EC50 [2] | Selectivity index (SI) MCF-7 [2] | EC50 [3] | EC50 [4] | Selectivity index (SI) HT29 [4] | EC50 [5] | Selectivity index (SI) 8505C [5] | EC50 [6] | Selectivity index (SI) A2780 [6]
139 to 142 °C | C[C@@H]1CC[C@]2(C(=O)NCCN)CC[C@]3(C)C(=CCC4[C@@]5(C)CC[C@H](O)C(C)(C)C5CC[C@]43C)C2[C@H]1C (stereo partly drawn) [Compound 10, (3β)-N-(2-Aminoethyl)-3-hydroxy-urs-12-en-28-amide] | 3700 ± 500 nM | 1.05 | 3200 ± 300 nM | 1.22 | 3900 ± 100 nM | 2000 ± 100 nM | 1.95 | 3700 ± 400 nM | 1.05 | 3300 ± 100 nM | 1.18
270 to 273 °C (dec.) | C[C@@H]1CC[C@]2(C(=O)NCCN(C)C)CC[C@]3(C)C(=CCC4[C@@]5(C)CC[C@H](O)C(C)(C)C5CC[C@]43C)C2[C@H]1C (stereo partly drawn) [Compound 11, (3β)-N-[2-(Dimethylamino)ethyl]-3-hydroxy-urs-12-en-28-amide] | 6600 ± 300 nM | 1.02 | 4200 ± 900 nM | 1.60 | 6700 ± 1300 nM | 3000 ± 200 nM | 2.23 | 7300 ± 200 nM | 0.92 | 4300 ± 500 nM | 1.56
263 to 266 °C (dec.) | C[C@@H]1CC[C@]2(C(=O)NCCN3CCCC3)CC[C@]3(C)C(=CCC4[C@@]5(C)CC[C@H](O)C(C)(C)C5CC[C@]43C)C2[C@H]1C (stereo partly drawn) [Compound 12, (3β)-N-(2-Pyrrolidin-1-ylethyl)-3-hydroxy-urs-12-en-28-amide] | 5500 ± 100 nM | 1.13 | 3500 ± 1000 nM | 1.77 | 6200 ± 400 nM | 2600 ± 300 nM | 2.38 | 5700 ± 200 nM | 1.09 | 3300 ± 300 nM | 1.88
214 to 217 °C | C[C@@H]1CC[C@]2(C(=O)NCCN3CCNCC3)CC[C@]3(C)C(=CCC4[C@@]5(C)CC[C@H](O)C(C)(C)C5CC[C@]43C)C2[C@H]1C (stereo partly drawn) [Compound 14, (3β)-N-(2-Piperazin-1-ylethyl)-3-hydroxy-urs-12-en-28-amide] | 7000 ± 400 nM | 0.94 | 4400 ± 100 nM | 1.50 | 6600 ± 600 nM | 2800 ± 400 nM | 2.36 | 7800 ± 500 nM | 0.85 | 4900 ± 400 nM | 1.35
177 to 180 °C | C[C@@H]1CC[C@]2(C(=O)NCCCCN)CC[C@]3(C)C(=CCC4[C@@]5(C)CC[C@H](O)C(C)(C)C5CC[C@]43C)C2[C@H]1C (stereo partly drawn) [Compound 15, (3β)-N-(4-Aminobutyl)-3-hydroxy-urs-12-en-28-amide] | 9300 ± 100 nM | 0.60 | 5500 ± 1100 nM | 1.02 | 5600 ± 300 nM | 2100 ± 300 nM | 2.67 | 10800 ± 1200 nM | 0.52 | 5400 ± 1400 nM | 1.04
126 to 129 °C | C[C@@H]1CC[C@]2(C(=O)NCCOCCN)CC[C@]3(C)C(=CCC4[C@@]5(C)CC[C@H](O)C(C)(C)C5CC[C@]43C)C2[C@H]1C (stereo partly drawn) [Compound 16] | 9900 ± 200 nM | 0.76 | 6300 ± 600 nM | 1.19 | 7500 ± 800 nM | 3100 ± 300 nM | 2.42 | 10600 ± 1100 nM | 0.71 | 6500 ± 1400 nM | 1.15
